The target of test [1] is MAP2K1;MAPK14 (human) (UniProt Q16539). The test is described as follows: Inhibition of CaCO Cell Proliferation by MTT Assay. The conditions noted are these: caco-2.
Test [2] has the same target. The test is described as follows: Inhibition of LOVO Cell Proliferation by MTT Assay.
Another test has as its target ROCK2 (UniProt O75116). Nature of the test: Inhibition of COS cell Derived Rho kinase (ROCKII).
Test [3] deals with EGFR (UniProt P00533).
The target in test [4] is EGFR (murine) (UniProt P00533). The following applies: nih3t3.
Test [5] concerns the target EGFR (human) (UniProt P00533). The conditions noted are these: a431.
In the next test the target is PIK3CA (UniProt P42336). The test is described as follows: PIK3CA Inhibition.
Test [6] concerns the target EGFR (UniProt P00533). The source holds these as a separate data set.
Test [7] has as its target EGFR (human) (UniProt P00533). The following applies: A431.
Test [8] concerns the target EGFR (human) (UniProt P00533). The following applies: f/l herc cells.
For test [9], the target named is MAPK14 (UniProt Q16539). The test is described as follows: Inhibition of MAPK Activity.
For test [10], the target named is EGFR (UniProt P00533). This is another data set of the same source.
The target of test [11] is EGFR (UniProt P00533). This is another data set of the same source.
Test [12] addresses EGFR (human) (UniProt P00533). The conditions noted are these: a431. The source holds these as a separate data set.
Test [13] addresses EGFR (UniProt P00533). The source holds these as a separate data set.
Test [14] addresses EGFR (human) (UniProt P00533). The following applies: a431. The source holds these as a separate data set.
The target in test [15] is EGFR (human) (UniProt P00533). The conditions noted are these: a431. The source holds these as a separate data set.
The target of test [16] is EGFR (UniProt P00533). This is another data set of the same source.
In test [17] the target is EGFR (human) (UniProt P00533). The following applies: a431, concentration not given here.
A further test concerns the target CDK2;CDK1 (UniProt P24941). The test is described as follows: Cell-Based Assay.
Test [18] addresses EGFR (UniProt P00533). This is another data set of the same source.
The target of test [19] is EGFR (human) (UniProt P00533).
Test [20] concerns the target MAPK14 (UniProt Q16539). The test is described as follows: p38 Binding Asssy.
Test [21] deals with CDK2 (UniProt P24941). The test is described as follows: Enzyme Assay. The conditions noted are these: concentration not given here.
The target in test [22] is CDK2 (UniProt P24941). Nature of the test: Enzyme Assay. The following applies: concentration not given here. The source holds these as a separate data set.
The target in test [23] is EGFR (UniProt P00533). The source holds these as a separate data set.
Test [24] deals with EGFR (murine) (UniProt P00533). The following applies: f/l-herc.
In test [25] the target is EGFR (human) (UniProt P00533). The conditions noted are these: a431. The source holds these as a separate data set.
In test [26] the target is EGFR (UniProt P00533). This is another data set of the same source.
The target in test [27] is EGFR (murine) (UniProt P00533). The following applies: nih3t3. This is another data set of the same source.
The target of test [28] is EGFR (UniProt P00533). This is another data set of the same source.

Chain of EGFR (murine) (P00533 whole entry, looked up): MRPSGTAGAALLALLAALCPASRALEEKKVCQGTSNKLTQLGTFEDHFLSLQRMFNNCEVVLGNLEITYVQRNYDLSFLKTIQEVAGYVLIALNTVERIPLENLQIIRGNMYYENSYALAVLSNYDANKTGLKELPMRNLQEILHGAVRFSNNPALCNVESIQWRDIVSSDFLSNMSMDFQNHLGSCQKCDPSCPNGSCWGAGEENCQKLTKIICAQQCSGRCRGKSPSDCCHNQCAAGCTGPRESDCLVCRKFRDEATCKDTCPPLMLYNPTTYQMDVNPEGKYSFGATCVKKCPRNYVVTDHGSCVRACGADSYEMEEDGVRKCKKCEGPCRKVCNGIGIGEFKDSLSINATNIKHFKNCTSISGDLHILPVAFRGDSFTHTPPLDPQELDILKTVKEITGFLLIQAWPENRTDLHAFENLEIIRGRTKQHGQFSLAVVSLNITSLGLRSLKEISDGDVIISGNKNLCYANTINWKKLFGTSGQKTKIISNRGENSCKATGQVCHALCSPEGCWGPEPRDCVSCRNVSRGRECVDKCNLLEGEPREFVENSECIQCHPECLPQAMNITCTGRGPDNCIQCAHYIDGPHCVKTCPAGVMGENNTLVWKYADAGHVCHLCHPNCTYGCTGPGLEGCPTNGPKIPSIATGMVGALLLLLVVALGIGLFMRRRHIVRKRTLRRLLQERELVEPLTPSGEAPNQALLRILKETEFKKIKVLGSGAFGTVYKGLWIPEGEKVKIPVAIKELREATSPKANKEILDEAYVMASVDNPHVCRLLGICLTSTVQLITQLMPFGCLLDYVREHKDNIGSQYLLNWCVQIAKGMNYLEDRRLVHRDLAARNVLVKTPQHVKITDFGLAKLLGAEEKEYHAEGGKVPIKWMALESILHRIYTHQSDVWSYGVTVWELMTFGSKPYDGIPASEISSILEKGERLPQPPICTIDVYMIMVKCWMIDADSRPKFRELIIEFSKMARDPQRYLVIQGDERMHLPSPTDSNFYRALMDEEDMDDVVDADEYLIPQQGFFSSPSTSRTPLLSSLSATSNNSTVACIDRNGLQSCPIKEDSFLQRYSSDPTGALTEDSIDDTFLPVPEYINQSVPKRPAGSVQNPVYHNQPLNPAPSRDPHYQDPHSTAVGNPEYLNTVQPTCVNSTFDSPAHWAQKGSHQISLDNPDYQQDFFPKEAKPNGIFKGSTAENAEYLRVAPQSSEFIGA
Chain of EGFR (human) (P00533 whole entry, looked up): as above
Chain of EGFR (P00533 whole entry, looked up): as above
Chain of MAPK14 (Q16539 whole entry, looked up): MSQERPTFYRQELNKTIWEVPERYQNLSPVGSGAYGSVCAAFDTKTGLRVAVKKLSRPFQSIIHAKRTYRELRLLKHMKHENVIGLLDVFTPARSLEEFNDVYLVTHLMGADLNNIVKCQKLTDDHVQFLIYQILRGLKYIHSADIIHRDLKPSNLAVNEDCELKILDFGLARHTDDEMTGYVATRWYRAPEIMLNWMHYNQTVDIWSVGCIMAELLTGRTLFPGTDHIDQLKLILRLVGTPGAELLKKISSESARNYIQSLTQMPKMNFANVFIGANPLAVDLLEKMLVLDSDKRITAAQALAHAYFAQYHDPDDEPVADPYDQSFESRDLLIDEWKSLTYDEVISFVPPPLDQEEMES
Chain of MAP2K1;MAPK14 (human) (Q16539 whole entry, looked up): as above
Chain of PIK3CA (P42336 whole entry, looked up): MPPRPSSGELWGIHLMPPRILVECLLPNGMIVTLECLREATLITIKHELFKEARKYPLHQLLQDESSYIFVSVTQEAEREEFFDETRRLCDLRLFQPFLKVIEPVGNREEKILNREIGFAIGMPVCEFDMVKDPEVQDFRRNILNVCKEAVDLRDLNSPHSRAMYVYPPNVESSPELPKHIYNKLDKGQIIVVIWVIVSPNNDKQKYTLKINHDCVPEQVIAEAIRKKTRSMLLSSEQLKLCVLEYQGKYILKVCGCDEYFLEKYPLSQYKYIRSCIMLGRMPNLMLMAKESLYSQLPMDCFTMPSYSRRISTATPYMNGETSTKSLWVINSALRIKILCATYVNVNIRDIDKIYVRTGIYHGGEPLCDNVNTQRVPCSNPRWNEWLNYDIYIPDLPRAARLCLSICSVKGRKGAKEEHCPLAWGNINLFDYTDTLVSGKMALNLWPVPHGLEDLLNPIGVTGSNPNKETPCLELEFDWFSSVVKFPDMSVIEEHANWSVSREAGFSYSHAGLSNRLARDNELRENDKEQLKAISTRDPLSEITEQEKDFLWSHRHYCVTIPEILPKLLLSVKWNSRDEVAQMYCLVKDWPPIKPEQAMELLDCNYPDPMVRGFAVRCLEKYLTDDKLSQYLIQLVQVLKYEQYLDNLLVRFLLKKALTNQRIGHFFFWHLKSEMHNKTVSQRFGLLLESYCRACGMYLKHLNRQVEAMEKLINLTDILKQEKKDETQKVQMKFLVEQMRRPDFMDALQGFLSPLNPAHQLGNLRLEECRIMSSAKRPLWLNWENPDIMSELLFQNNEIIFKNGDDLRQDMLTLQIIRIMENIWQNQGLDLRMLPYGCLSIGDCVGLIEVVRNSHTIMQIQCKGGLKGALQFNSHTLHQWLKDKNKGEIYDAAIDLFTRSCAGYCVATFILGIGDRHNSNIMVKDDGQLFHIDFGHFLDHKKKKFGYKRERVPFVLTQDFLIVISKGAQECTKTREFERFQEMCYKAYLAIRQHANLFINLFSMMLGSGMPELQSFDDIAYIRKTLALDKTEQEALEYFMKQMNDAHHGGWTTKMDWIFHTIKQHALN

The term IC50 denotes the concentration that inhibits the measured activity by half. Read a high IC50 as weaker potency in that assay. On to `COc1cc2c(Nc3ccc(Sc4nccn4C)c(Cl)c3)c(C#N)cnc2cc1OCCC[N+]1([O-])CCSCC1`, for which the IC50 with MAP2K1;MAPK14 (human) [1] was more than 1 µM; with MAP2K1;MAPK14 (human) [2], 0.036 µM. Compound `N=C(N)NC[C@H]1CC[C@H](C(=O)NC2=CC=NC3NN=CC23)CC1` (stereo partly drawn) registered an IC50 on ROCK2 of 0.47 µM. That is a sub-micromolar value. In turn, `Cc1cc(C)c(N2CCN(C)CC2)c(C)c1-c1nc(-c2ccncc2)c(-c2ccc(Cl)cc2)[nH]1` displayed an IC50 at EGFR [3] of 0.05 µM. In the test with EGFR (murine) [4], `NS(=O)(=O)c1ccc2c(c1)/C(=C/C1=CC3=C(CCCC3)C1)C(=O)N2` had an IC50 of more than 100 µM. `Brc1cccc(Nc2ncnc3cc4c(ccn4CCCN4CCOCC4)cc23)c1` yielded an IC50 against EGFR (human) [5] of 0.077 µM. On PIK3CA, `CCCCCCCCCCCCCCCCCCOC[C@H](COP(=O)(O)O[C@H]1[C@H](O)[C@@H](O)CC[C@H]1O)OC` had an IC50 of 0.8 µM. In the case of `Cc1cc(C(=O)N2CCOCC2)[nH]c1/C=C1/C(=O)Nc2ncnc(Nc3cccc4c3CCC4)c21`, the 50% inhibitory concentration (IC50) against EGFR [6] came out at 0.377 µM. `c1ccc(COc2ccc(Nc3ncnc4ccc(-c5ccc(CNCc6cccnc6)o5)cc34)cc2)cc1` had an IC50 at EGFR (human) [7] of 0.2 µM. As for `CCOC(=O)CN1CCN(C/C=C/C(=O)Nc2cc3c(Nc4ccc(F)c(Cl)c4)ncnc3cc2OCCC2CC2)CC1`, the IC50 at EGFR (human) [8] is 0.017 µM. In turn, `Cn1cnc2c(NCc3ccccc3)nc(NCCO)nc21` came in with an IC50 against MAPK14 [9] of 30 µM. This lies in the double-digit micromolar range.

`Cn1c(=O)c(-c2c(Cl)cccc2Cl)cc2cnc(Nc3ccccc3)nc21` displayed an IC50 against EGFR [10] of 0.078 µM. In turn, `O=C(c1c[nH]c2ccccc12)N1CCC(Cc2ccccc2)CC1` registered an IC50 at EGFR [11] of more than 500 µM. What is called Ki is the equilibrium dissociation constant of an inhibitor or competing ligand from its target. Read a high Ki as lower affinity. At EGFR (human) [12], `N#C/C(=C\c1ccc(O)c(O)c1)C(N)=O` returned a Ki of 3.5 µM. This compound also registered an IC50 at EGFR [13] of more than 1000 µM. Take `COc1cc2ncnc(N[C@H](CO)c3ccccc3)c2cc1OC`: the IC50 was 0.8 µM against EGFR (human) [14] and more than 1.56 µM on EGFR (human) [15]. At EGFR [16], `Cc1cccc(Nc2cc(Nc3cccc(N(C)C)c3OCCO)ncn2)c1` yielded an IC50 of 0.001 µM. Compound `O=C(c1cccc2[nH]ccc12)N1CCC(Cc2ccccc2)CC1` showed an IC50 on EGFR [11] of more than 500 µM.

With `C=CC(=O)Nc1ccc2ncnc(Nc3ccc(Oc4ccccc4)cc3)c2c1`, at EGFR (human) [17], the activity amounted to 0%.

For orientation: GI50 means the concentration at which growth is held to half of that of the control. The low end stands for more potent growth inhibition, the high end for less potent growth inhibition. As for `Nc1cc(OCC2CCCCC2)nc(N)n1`, the GI50 with CDK2;CDK1 is more than 100 µM. Consider `Brc1cccc(Nc2ncnc3cc4[nH]cc(CNN5CCOCC5)c4cc23)c1`, for which the IC50 against EGFR (human) [5] worked out at 0.0096 µM; against EGFR [18], 0.0048 µM. Take `Cn1cnc2c(OCC3CCCCC3)nc(N)nc21`: the GI50 with CDK2;CDK1 was more than 100 µM. For `CCn1c(=O)c(-c2c(Cl)cccc2Cl)cc2cnc(Nc3ccncc3)nc21`, on EGFR (human) [19], the concentration for half-maximal inhibition (IC50) worked out at 0.25 µM. `[N-]=[N+]=Nc1ccc(-c2nc(-c3cccc(I)c3)c(-c3ccncc3)[nH]2)cc1` gave an IC50 at MAPK14 [20] of 0.64 µM. This lies in the sub-micromolar range. On to `C[S+]([O-])c1ccc(-c2nc(-c3ccc(F)cc3)c(-c3ccncc3)[nH]2)cc1` (stereo not drawn), for which the activity at CDK2 [21] is 91%; on CDK2 [22] it was 112%. For the compound `N#CC(C#N)=Cc1cc(O)c(O)c(O)c1`, on EGFR [23], the IC50 is 50 µM. The same compound showed a Ki at EGFR (human) [12] of 1 µM. For `O[C@H]1CC[C@H](Nc2ncc3ncnc(Nc4ccc5c(c4)-c4ccccc4C5)c3n2)CC1`, the half-inhibitory concentration (IC50) with EGFR (murine) [24] is more than 10 µM. `N#Cc1cnc2ccc(NC(=O)C#CCN3CCSCC3)cc2c1Nc1cccc(Br)c1` displayed an IC50 against EGFR (human) [25] of 0.1 µM. For `O=CN/C=C/c1cc(O)ccc1O`, the IC50 against EGFR [13] was determined as 5 µM. For `N#C/C(=C\c1ccc(O)c(O)c1)C(=O)NCCCc1ccccc1`, the IC50 against EGFR [26] turned out to be 0.7 µM. That is a sub-micromolar value.

Consider `Cc1nnc(-c2ccc3ncnc(Nc4ccc(OCc5cc(F)cc(F)c5)cc4)c3c2)o1`, for which, at EGFR (human) [7], the IC50 was found to be 0.009 µM.

`CCCCCCCCCCCCCCCC(=O)OC[C@H](COP(=O)(O)O[C@H]1[C@H](O)[C@@H](O)[C@H](O)C[C@H]1O)OC(=O)CCCCCCCCCCCCCCC` showed an IC50 against PIK3CA of 38.4 µM. `N#Cc1ccc(NC(=S)Nc2ccc(S(=O)(=O)N3CCCCC3)cc2)cc1`: the 50% inhibitory concentration (IC50) with EGFR (murine) [27] was more than 100 µM. On to `C=CC(=O)Nc1cc2c(Nc3cccc(Br)c3)c(C#N)cnc2cc1OC`, for which the IC50 against EGFR [28] amounted to 0.81 µM.

The record behind these values is the Kinase Knowledgebase extract (Sharma et al. 2016).
